According to PubChem BioAssay AID743504 (Broad Institute, 2014):
The source made the active and inactive calls.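 Rule for the calls: active = compounds blocking the hormone-driven reporter light with IC50 under 35 µM; inactive = IC50 above 35 µM, or no measured IC50.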

Biological target: Bursicon receptor (Drosophila rickets, LGR2)
Assay: LGR2 bursicon receptor antagonists, dose response, cell-based, HEK293, CRE-luciferase, beta-gal normalized, dry powder, set 4 (AID 743504)
Settings: bursicon-stimulated, antagonist

Row | Structure (SMILES) | IC50
1 | C[C@@H]1CCCCO[C@H](CN(C)C(=O)Nc2ccc(F)cc2)[C@H](C)CN([C@@H](C)CO)C(=O)c2cc(NC(=O)C3CCCCC3)ccc2O1 | > 35 µM (inactive)
2 | C[C@H](CO)N1C[C@H](C)[C@H](CN(C)C(=O)Nc2ccc(F)cc2)OCCCC[C@H](C)Oc2ccc(NC(=O)C3CCCCC3)cc2C1=O | < 35 µM
3 | COc1ccc(NC(=O)N(C)C[C@@H]2OCCCC[C@H](C)Oc3ccc(NC(=O)C4CCCCC4)cc3C(=O)N([C@H](C)CO)C[C@@H]2C)cc1 | < 35 µM

Next, values leading:

Row | IC50 | Structure (SMILES)
4 | < 35 µM | C[C@H](CO)N1C[C@H](C)[C@H](CN(C)C(=O)Nc2ccc3c(c2)OCO3)OCCCC[C@H](C)Oc2ccc(NC(=O)C3CCCCC3)cc2C1=O
5 | < 35 µM | C[C@H](CO)N1C[C@H](C)[C@H](CN(C)C(=O)Nc2ccccc2)OCCCC[C@H](C)Oc2ccc(NC(=O)C3CCCCC3)cc2C1=O
